US8952024B2, “Herbicidal pyrimidone derivatives” (E I du Pont de Nemours and Company, priority 2009, dated 2015)

Columns and labels:
Assay in all cases: Test B pre-/postemergence plant response
Format in all cases: in vivo
[1] = tested on: corn (Zea mays); details: for Corn plant response rating (0 to 100 scale): 62 g ai/ha, 0 is no effect
Method in brief: (§1)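 Visual injury, 0–100 scale (100 = complete control), rated against controls after 13 to 15 days in greenhouse. Pre-emergence: seeds in loam/sand soil, treated at planting. Post-emergence: 1- to 4-leaf plants (2 to 18 cm) in peat/vermiculite medium. Compounds formulated in non-phytotoxic solvent with surfactant.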

[2] = tested on: johnsongrass (Sorghum halepense); details: for Johnsongrass plant response rating (0 to 100 scale): 62 g ai/ha, 0 is no effect
Method in brief: as §1

[3] = tested on: Surinam grass (Brachiaria decumbens); details: for Surinam Grass plant response rating (0 to 100 scale): 62 g ai/ha, postemergence, 0 is no effect, 100 is complete control; for Plant response rating, Surinam Grass: Postemergence
Method in brief: as §1

[4] = tested on: pigweed (Amaranthus retroflexus); details: for Pigweed plant response rating (0 to 100 scale): 62 g ai/ha, 0 is no effect
Method in brief: as §1

[5] = tested on: velvetleaf (Abutilon theophrasti); details: for Velvetleaf plant response rating (0 to 100 scale): 62 g ai/ha, postemergence, 0 is no effect, 100 is complete control; for Plant response rating, Velvetleaf: Postemergence
Method in brief: as §1

[6] = tested on: soybean (Glycine max); details: for Soybean plant response rating (0 to 100 scale): 62 g ai/ha, postemergence, 0 is no effect, 100 is complete control; for Plant response rating, Soybean: Postemergence
Method in brief: as §1

[7] = tested on: Italian ryegrass (Lolium multiflorum); details: for Ryegrass, Italian plant response rating (0 to 100 scale): 62 g ai/ha, postemergence, 0 is no effect, 100 is complete control; for Plant response rating, Ryegrass, Italian: Postemergence
Method in brief: as §1

[8] = tested on: woolly cupgrass (Eriochloa villosa); details: for Cupgrass, Woolly plant response rating (0 to 100 scale): 62 g ai/ha, 0 is no effect
Method in brief: as §1

[9] = tested on: ragweed (common ragweed, Ambrosia elatior); details: for Ragweed plant response rating (0 to 100 scale): 62 g ai/ha, postemergence, 0 is no effect, 100 is complete control; for Plant response rating, Ragweed: Postemergence
Method in brief: as §1

[10] = tested on: blackgrass (Alopecurus myosuroides); details: for Blackgrass plant response rating (0 to 100 scale): 62 g ai/ha, 0 is no effect
Method in brief: as §1

[11] = tested on: giant foxtail (Setaria faberii); details: for Foxtail, Giant plant response rating (0 to 100 scale): 62 g ai/ha, 0 is no effect
Method in brief: as §1

[12] = tested on: kochia (Kochia scoparia); details: for Kochia plant response rating (0 to 100 scale): 62 g ai/ha, 0 is no effect
Method in brief: as §1

[13] = tested on: downy bromegrass (Bromus tectorum); details: for Bromegrass, Downy plant response rating (0 to 100 scale): 62 g ai/ha, 0 is no effect
Method in brief: as §1

[14] = postemergence, 100 is complete control, 13 to 15 days
[15] = Postemergence, 31 g ai/ha, 0 to 100 scale (0 no effect, 100 complete control)
[16] = Postemergence, 125 g ai/ha, scale 0 to 100 (0 no effect, 100 complete control)
[17] = Postemergence, 250 g ai/ha, scale 0 to 100 (0 no effect, 100 complete control), 13 to 15 days
[18] = 31 g ai/ha, 0 to 100 scale (0 no effect, 100 complete control)
[19] = 125 g ai/ha, scale 0 to 100 (0 no effect, 100 complete control)
[20] = 250 g ai/ha, scale 0 to 100 (0 no effect, 100 complete control), 13 to 15 days
[21] = 31 g ai/ha, postemergence, scale 0 to 100, 0 is no effect, 100 is complete control
[22] = Postemergence, 250 g ai/ha, scale 0 to 100 (0 no effect, 100 complete control)
[23] = 250 g ai/ha, scale 0 to 100 (0 no effect, 100 complete control)

CCCCn1c(-c2cccc(Cl)c2)ncc(C(=O)C2=C(O)CCCC2=O)c1=O [Compound 146]
Corn plant response rating (0 to 100 scale) [1, 14]: 5 | Plant response rating, Corn [1, 15]: 0 | Plant response rating, Corn [1, 16]: 20 | Plant response rating, Corn [1, 17]: 35 | Johnsongrass plant response rating (0 to 100 scale) [2, 14]: 45 | Plant response rating, Johnsongrass [2, 15]: 45 | Plant response rating, Johnsongrass [2, 16]: 70 | Plant response rating, Johnsongrass [2, 17]: 95 | Surinam Grass plant response rating (0 to 100 scale) ([3]; 13 to 15 days): 65 | Plant response rating, Surinam Grass [3, 18]: 65 | Plant response rating, Surinam Grass [3, 19]: 75 | Plant response rating, Surinam Grass [3, 20]: 75 | Pigweed plant response rating (0 to 100 scale) [4, 14]: 98 | Plant response rating, Pigweed [4, 15]: 95 | Plant response rating, Pigweed [4, 16]: 100 | Plant response rating, Pigweed [4, 17]: 100 | Velvetleaf plant response rating (0 to 100 scale) ([5]; 13 to 15 days): 85 | Plant response rating, Velvetleaf [5, 18]: 80 | Plant response rating, Velvetleaf [5, 19]: 98 | Plant response rating, Velvetleaf [5, 20]: 100 | Soybean plant response rating (0 to 100 scale) ([6]; 13 to 15 days): 85 | Plant response rating, Soybean [6, 18]: 70 | Plant response rating, Soybean [6, 19]: 98 | Plant response rating, Soybean [6, 20]: 100 | Ryegrass, Italian plant response rating (0 to 100 scale) ([7]; 13 to 15 days): 5 | Plant response rating, Ryegrass, Italian [7, 18]: 5 | Plant response rating, Ryegrass, Italian [7, 19]: 10 | Plant response rating, Ryegrass, Italian [7, 20]: 15 | Cupgrass, Woolly plant response rating (0 to 100 scale) [8, 14]: 65 | Plant response rating, Cupgrass, Woolly [8, 15]: 60 | Plant response rating, Cupgrass, Woolly [8, 16]: 65 | Plant response rating, Cupgrass, Woolly [8, 17]: 75 | Ragweed plant response rating (0 to 100 scale) ([9]; 13 to 15 days): 80 | Plant response rating, Ragweed [9, 18]: 65 | Plant response rating, Ragweed [9, 19]: 98 | Plant response rating, Ragweed [9, 20]: 98 | Blackgrass plant response rating (0 to 100 scale) [10, 14]: 30 | Plant response rating, Blackgrass [10, 15]: 5 | Plant response rating, Blackgrass [10, 16]: 35 | Plant response rating, Blackgrass [10, 17]: 50 | Foxtail, Giant plant response rating (0 to 100 scale) [11, 14]: 85 | Plant response rating, Foxtail, Giant [11, 15]: 75 | Plant response rating, Foxtail, Giant [11, 16]: 95 | Plant response rating, Foxtail, Giant [11, 17]: 98 | Kochia plant response rating (0 to 100 scale) [12, 14]: 45 | Plant response rating, Kochia [12, 15]: 40 | Plant response rating, Kochia [12, 16]: 85 | Plant response rating, Kochia [12, 17]: 90 | Bromegrass, Downy plant response rating (0 to 100 scale) [13, 14]: 5 | Plant response rating, Bromegrass, Downy [13, 15]: 0 | Plant response rating, Bromegrass, Downy [13, 16]: 10 | Plant response rating, Bromegrass, Downy [13, 17]: 35

COCCn1c(-c2cccc(C)c2)ncc(C(=O)C2=C(O)CCCC2=O)c1=O [Compound 117]
Plant response rating, Corn [1, 21]: 10 | Corn plant response rating (0 to 100 scale) [1, 14]: 15 | Plant response rating, Corn [1, 16]: 25 | Plant response rating, Corn [1, 22]: 25 | Plant response rating, Johnsongrass [2, 21]: 5 | Johnsongrass plant response rating (0 to 100 scale) [2, 14]: 20 | Plant response rating, Johnsongrass [2, 22]: 25 | Surinam Grass plant response rating (0 to 100 scale) ([3]; 13 to 15 days): 75 | Plant response rating, Surinam Grass [3, 23]: 85 | Plant response rating, Pigweed [4, 21]: 95 | Pigweed plant response rating (0 to 100 scale) [4, 14]: 98 | Plant response rating, Pigweed [4, 22]: 100 | Velvetleaf plant response rating (0 to 100 scale) ([5]; 13 to 15 days): 85 | Plant response rating, Velvetleaf [5, 19]: 95 | Plant response rating, Velvetleaf [5, 23]: 100 | Soybean plant response rating (0 to 100 scale) ([6]; 13 to 15 days): 80 | Plant response rating, Soybean [6, 19]: 95 | Plant response rating, Soybean [6, 23]: 95 | Ryegrass, Italian plant response rating (0 to 100 scale) ([7]; 13 to 15 days): 10 | Plant response rating, Ryegrass, Italian [7, 19]: 15 | Plant response rating, Ryegrass, Italian [7, 23]: 50 | Plant response rating, Cupgrass, Woolly [8, 21]: 65 | Cupgrass, Woolly plant response rating (0 to 100 scale) [8, 14]: 85 | Plant response rating, Cupgrass, Woolly [8, 16]: 95 | Plant response rating, Cupgrass, Woolly [8, 22]: 98 | Ragweed plant response rating (0 to 100 scale) ([9]; 13 to 15 days): 75 | Plant response rating, Ragweed [9, 19]: 90 | Plant response rating, Ragweed [9, 23]: 98 | Plant response rating, Blackgrass [10, 21]: 0 | Blackgrass plant response rating (0 to 100 scale) [10, 14]: 10 | Plant response rating, Blackgrass [10, 16]: 40 | Plant response rating, Blackgrass [10, 22]: 40 | Plant response rating, Foxtail, Giant [11, 21]: 65 | Foxtail, Giant plant response rating (0 to 100 scale) [11, 14]: 75 | Plant response rating, Foxtail, Giant [11, 16]: 80 | Plant response rating, Foxtail, Giant [11, 22]: 95 | Plant response rating, Kochia [12, 21]: 45 | Kochia plant response rating (0 to 100 scale) [12, 14]: 50 | Plant response rating, Kochia [12, 22]: 85 | Plant response rating, Bromegrass, Downy [13, 21]: 5 | Bromegrass, Downy plant response rating (0 to 100 scale) [13, 14]: 10 | Plant response rating, Bromegrass, Downy [13, 16]: 15 | Plant response rating, Bromegrass, Downy [13, 22]: 45
